Measurements published in a melting point compilation (Tetko et al.).

SMILES | melting point [°C]
CC(C)c1ccccc1C(C)C | -57
O=C1/C(=C\c2ccc(Cl)cc2)SC(=S)N1CN1CCCCC1 | 122
COC(=O)c1sccc1Oc1ccc(Cl)cc1[N+](=O)[O-] | 125 to 128
Cn1ccc2cc(S(=O)(=O)Cl)ccc21 | 79 to 80
Cc1cc(C)c(N)c(I)c1 | 65
CCP(=O)(c1ccccc1)c1ccccc1 | 122
Nc1ccnc(N)c1 | 107
CCCCCCC(O)CCCCC (stereo not given) | 30
COc1ccc(C2(C)CCc3oc4c(Br)cc(Br)cc4c3-c3oc(C)cc32)cc1 (stereo not given) | 165
O=c1[nH]nc2oc3ccccc3cc1-2 | 220
C=C(C)C(=O)Oc1ccc(C(C)(C)c2ccc(OC(=O)C(=C)C)cc2)cc1 | 70 to 76
O=C(O)c1csc(N2CCOCC2)n1 | 175 to 177
N#Cc1ncccc1N1CCCCC1 | 67 to 69
NC(=O)COc1cccc(Cl)c1 | 123 to 126
CC(=O)NC1CCCCC(NC(C)=O)CCCC1 (stereo not given) | 296 to 297
CC(CC(C(N)=O)(c1ccccc1)c1ccccc1)N(C)C (stereo not given) | 137
Nc1nc2cc3nc(N)c(-c4ccccc4)cc3cc2cc1-c1ccccc1 | 301
Cc1[nH]c2cc(C(F)(F)F)ccc2c1C(=O)N1CCCCC1 | 174 to 175
NNC(=O)c1ccc(O)cc1O | 241
O=C(CBr)c1ccc(OC(F)F)cc1 | 63 to 65
O=C(O)C(Br)CBr (stereo not given) | 66.5
Cc1nccn1-c1ccccc1CN | 48 to 48.5

SMILES | melting point [°C]
Nc1nc2ccccc2n1Cc1ccc(Cl)cc1 | 197 to 199
NC(=S)c1cccc(I)c1 | 120 to 124
Cc1ccc2sc(S(=O)(=O)Cl)cc2c1 | 83
CC(C)(C)OC(=O)Nc1cc(O)cc(C(=O)O)c1 | 150 to 151
Cc1onc(-c2c(Cl)cccc2Cl)c1CC#N | 75 to 78
C=C(C)C=CC(=C)C | -9
O=[N+]([O-])c1ccsc1 | 78.5
Clc1ccccc1-c1nnc(-c2ccccc2Cl)nn1 | 183
COc1ccc(F)c(F)c1O | 46
Oc1ccc(O)c2ccccc12 | 188 to 192
C=C(C)c1cc(=O)c(O)ccc1CC=C(C)C | 71.5
COP(=O)(OC)OC(Br)C(Cl)(Cl)Br (stereo not given) | 27
OCc1ccc(Cl)nc1 | 48
CSc1nc(N)c(C#N)s1 | 207 to 210
CC(C)C(C)CCC(C)C1CCC2C3CC=C4CC(O)CCC4(C)C3CCC12C (stereo not given) | 158
Nc1ccncc1C=O | 110
COc1ccc2c(c1)c1c3n2CCN(C)C3=NCC1 | 164
CCOC(=O)c1c(SC)nn(S(=O)(=O)c2ccc(OC)cc2)c1N | 143 to 145
COc1cc(Br)c(C=CC(=O)O)cc1OC | 253 to 259
CC(=O)OC1CCCCC1 | -65
O=C(O)CC(C(=O)O)C(CC(=O)O)C(=O)O (stereo not given) | 195 to 197
CCCC(C)(COC(N)=O)COC(N)=O | 104

SMILES | melting point [°C]
OCc1cc2cc(Br)ccc2o1 | 101 to 103
O=C1NC(=O)C(=NNc2ccc(Br)cc2)C(=O)N1 | 295
O=c1c2ccccc2ccc2ccccc12 | 88.5
CCc1cccc(CC)c1NC(=O)CCl | 130
O=C(CBr)c1nccs1 | 54 to 55
O=C(CNC(=O)OCC1c2ccccc2-c2ccccc21)Oc1c(F)c(F)c(F)c(F)c1F | 159 to 160
CC(=O)n1nc2oc3ccccc3cc-2c1=O | 170
Cc1ccc(N)c(O)c1 | 157
NC(=O)C=Cc1ccc(C=CC(N)=O)cc1 | 320
CCOC(=O)C=Cc1ccc(OC)c(OC)c1Cl | 68 to 69
COc1ccc2c(c1)CC1(CCC(c3ccc(C(C)(C)C)cc3)CC1)C2 (stereo not given) | 84 to 85
O=C1/C(=N/Nc2ccc(F)cc2)C(C(F)(F)F)=NN1c1ccccc1 | 185
O=c1c2ccccc2cc2c3ccccc3ccn12 | 147
COc1ccc(N)cc1C(F)(F)F | 59
CC=CC(C)C | -120
COc1ccc(-c2cc(C(F)(F)F)[nH]n2)cc1OC | 150 to 156
NNC(=O)C(=O)NC1CCCCC1 | 238
N#Cc1sc(Br)c2c1OCCO2 | 149 to 150
COc1cc(Cl)c(Cl)c(Cl)c1OC | 66
O=C(O)c1csc(-c2ccc3c(c2)CCO3)n1 | 210 to 214
O=CNC(Nc1ccc(Cl)c(Cl)c1)C(Cl)(Cl)Cl (stereo not given) | 135
NC(CO)C(=O)O (racemic) | 240

SMILES | melting point [°C]
CCCCCCCc1ccc(O)cc1 | 26.5
CCCSP(=S)(OCC)Oc1ccc(SC)cc1 (stereo not given) | -15
NNC(=O)c1ccc(N)cc1O | 195
Cc1c(N)cccc1N | 106
O=C(Nc1ccccc1)OCc1ccccc1[N+](=O)[O-] | 141
CC12CCC(C(CC(N)=O)C1=O)C2(C)C (stereo not given) | 101
COC(=O)[C@@H]1CCCN1C(=O)COC(=O)c1ccccc1 | 72.5
CO[C@@H](C)C(N)=O | 80 to 84
CCCCCCCCCCCCOc1ccc(C(C)=O)cc1OCCCCCCCCCCCC | 62 to 67
Cc1ccc(C(=O)Cl)o1 | 29
COC1=C(OC)C(C(O)COS(=O)(=O)c2ccc(C)cc2)OC1=O (stereo not given) | 88 to 90
COc1cc(C(=O)OCCCN(C)CCN(C)CCCOC(=O)c2cc(OC)c(OC)c(OC)c2)cc(OC)c1OC | 76
BrCc1ccccc1I | 56
CC(C)(C)CC(C)(C)Nc1nc(N2CCOCC2)nc(N2CCOCC2)n1 | 159
COc1ccc(-n2c(=S)[nH]c(=O)c3cccnc32)cc1 | 261 to 263
Cc1c(C(=O)O)cccc1[N+](=O)[O-] | 184
CCOC(=O)c1sc(-c2ccc(C)cc2)nc1O | 128 to 130
CCCCCCCCCBr | -29
Cc1ccccc1NC(=N)NC(=N)N | 144
N#CC1(C#N)C2COC(C3=C2CCCC3)C1(C#N)C#N (stereo not given) | 173
CC1=C2C3OC(=O)C(C)C3CCC2(C)C=CC1=O (stereo not given) | 175

Next, values leading:

melting point [°C] | SMILES
-10 | Cc1ccc(C(C)(C)C)cc1S
198 | CNc1cc(=O)oc2ccccc12
87 | O=C(C(=O)c1ccc2ccccc2c1)c1ccccc1
85.8 | OCCCCCCCCCCCCCCO
113 | CCOc1ccc(N=C(CNc2ccc(OCC)cc2)Nc2ccc(OCC)cc2)cc1
63 | N#CC1CNc2ccccc2O1 (stereo not given)
109 | Ic1cn[nH]c1
256 to 260 | CC(C)(C)c1ccc(-c2nnc(S)n2-c2cccc(C(F)(F)F)c2)cc1
214 | CN1CCN(C(=O)CC(c2ccc(Cl)cc2)(c2ccc(Cl)cc2)c2ccc(Cl)cc2)CC1
158 | CC(=O)OCN1C(=O)NC(c2ccccc2)(c2ccccc2)C1=O
118 | CC(C)(C)OC(=O)N[C@@H](Cc1ccc(Br)cc1)C(=O)O
121 | O=C(O)C(Cc1ccccc1)C(=O)O
107 to 109 | O=C(OC(=O)C(=Cc1ccccc1)Cc1ccccc1)C(=Cc1ccccc1)Cc1ccccc1
113 to 115 | O=C(Oc1c(F)c(F)c(F)c(F)c1F)c1ccc(-c2ccccc2)nc1
244 to 246 | S=c1[nH]ccn1-c1ccc(Br)cc1
135 to 136 | COC(=O)c1cccc2c1-c1ccccc1C2=O
93 | O=Cc1cccc2cccnc12
135 to 136 | CCOC(=O)c1c(C)nc2sc3c(c2c1N)CCCC3
256 | Nc1c(C(=O)O)cnc2c(C(=O)O)cnn12
127 to 131 | CC(C)(C)OC[C@H](NC(=O)OCC1c2ccccc2-c2ccccc21)C(=O)O
354 | O=C1c2ccc(O)cc2C(=O)c2cc(O)ccc21
75 | Cc1cc(N)n(C)n1

melting point [°C] | SMILES
95 | CCSc1nnc(C(C)(C)C)c(=O)n1N
228 | CCn1cc(C(=O)O)c(=O)c2cc(F)c(N3CCNCC3)cc21
200 | Brc1cc(Br)c(Oc2c(Br)c(Br)c(Br)c(Br)c2Br)cc1Br
34 | O=C1CCCCCCCC1
214 | O=C(O)C=Cc1cccc(C(Br)=C(Br)C(=O)O)c1
66 | O=C(OCCOc1ccc(Cl)cc1Cl)c1ccccc1
51 | CCOC(=O)CCC(=O)c1ccc(OC)cc1
-110 | FC(F)(Br)C(F)(F)Br
152 to 154 | COC(=O)c1scc(S(=O)(=O)Cc2ccco2)c1N
143 | COC(=O)CCc1ccc2c(c1)NC(=O)CC2
230 | Oc1ccc(-c2nnc3n2NC(c2ccco2)S3)cc1 (stereo not given)
9 | CCN(CC)C(=O)SCc1ccccc1Cl
112 | Cc1cc(C)c(C)c(CO)c1C
183 to 185 | O=C1CC2C(CC(OC(=O)c3ccccc3)C2COC(c2ccccc2)(c2ccccc2)c2ccccc2)O1 (single isomer, unassigned; (-))
153 | Nc1ccccc1-c1cc2ccccc2[nH]1
205 | O=C(O)C=Cc1cc(F)cc(F)c1
27 | Nc1cccc(C(F)(F)F)c1Cl
183 | C=C1C(=O)C23C(OC)CC4C5(C)CCCC4(COC5)C2C(OC(C)=O)CC1C3O (stereo not given)
39 | FC(F)(F)c1cccnc1Cl
63 | CCOC(=O)N1CCNC(c2ccccc2)C1 (stereo not given)
157 | Cc1cccc(N/N=C(/C#N)c2nc(-c3ccc(Cl)cc3)cs2)c1
